Test results reported in patent publication US12421222B2 (AUGUSTINE THERAPEUTICS, priority 2021, dated 2025).

Test system: acetylated tubulin (Lys40) in HeLa cells
Test: Acetylated α-tubulin measurement in vitro (immunocytochemistry)
Type: cell-based
Conditions: Homo sapiens, 6 hours incubation, acetylated tubulin (Lys40) by immunocytochemistry, read-out: IC50 (Tubulin deacetylation)
In short: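 HeLa cells in serum-free medium treated 6 h at 37 °C (final DMSO 0.1–0.4%), then PFA-fixed and immunostained for acetyl-Lys40 and total α-tubulin; high-content imaging.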

Row | IC50 [nM] | SMILES
1 | 100 to 500 | COc1cnc2nc(C)nc(SCC(=O)c3ccc(CNC(=O)CO)s3)c2c1 [Example 140, 2-hydroxy-N-((5-(2-((6-methoxy-2-methylpyrido[2,3-d]pyrimidin-4-yl)thio)acetyl)thiophen-2-yl)methyl)acetamide]
2 | 1000 to 3330 | CN(Cc1ccc(C(=O)CSc2ncnc3c2cnn3C)s1)C(=O)C1CC1 [Example 34, N-methyl-N-((5-(2-((1-methyl-1H-pyrazolo[3,4-d]pyrimidin-4-yl)thio)acetyl)thiophen-2-yl)methyl)cyclopropanecarboxamide]
3 | ≤ 100 | O=C(CO)NCc1ccc(C(=O)CSc2nc3ccc(C(F)(F)F)nc3o2)s1 [Example 117, 2-hydroxy-N-((5-(2-((5-(trifluoromethyl)oxazolo[5,4-b]157yrrolid-2-yl)thio)acetyl)thiophen-2-yl)methyl)acetamide]
4 | ≤ 100 | O=C(CO)NCc1ccc(C(=O)CSc2nc(C(F)(F)F)nc3nn(C4CC4)cc23)s1 [Example 79, N-((5-(2-((2-cyclopropyl-6-(trifluoromethyl)-2H-pyrazolo[3,4-d]pyrimidin-4-yl)thio)acetyl)thiophen-2-yl)methyl)-2-hydroxyacetamide]
5 | ≤ 100 | Cc1nc(SCC(=O)c2ccc(CNC(=O)CO)s2)c2cc(N3CCCCC3)ccc2n1 [Example 82, 2-hydroxy-N-((5-(2-((2-methyl-6-(piperidin-1-yl)quinazolin-4-yl)thio)acetyl)thiophen-2-yl)methyl)acetamide]
6 | 100 to 500 | Cc1cc2nc(C(F)(F)F)nc(SCC(=O)c3ccc(CNC(=O)CO)s3)n2n1 [Example 107, 2-hydroxy-N-((5-(2-((7-methyl-2-(trifluoromethyl)pyrazolo[1,5-a][1,3,5]triazin-4-yl)thio)acetyl)thiophen-2-yl)methyl)acetamide]
